Data reported in PubChem BioAssay (NCI).
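1) Cells in 96-well plates. 2) Compound, 48 h, 5 concentrations. 3) Linear interpolation between surrounding doses. 4) Unreached endpoint = highest concentration. TGI marks complete inhibition of growth.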

Columns and labels:
Experiment in all cases: NCI tumour cell line growth inhibition, 48 h
[1] = system: UO-31 renal
[2] = system: HOP-62 NSCLC
[3] = system: HOP-18 NSCLC
[4] = system: KM12 colon
[5] = system: HT29 colon
[6] = system: DLD-1 colon
[7] = system: OVCAR-8 ovarian
[8] = system: UACC-257 melanoma
[9] = system: A549 NSCLC
[10] = system: SK-OV-3 ovarian
[11] = system: K-562 leukemia
[12] = system: SR leukemia
[13] = system: HCT-116 colon
[14] = system: HOP-92 NSCLC
[15] = system: SK-MEL-2 melanoma
[16] = system: SF-295 CNS
[17] = system: UACC-62 melanoma
[18] = system: TK-10 renal
[19] = system: OVCAR-4 ovarian
[20] = system: MALME-3M melanoma
[21] = system: DMS 114 small cell lung
[22] = system: EKVX NSCLC
[23] = system: KM20L2 colon
[24] = system: NCI-H522 lung
[25] = system: HCC-2998 colon
[26] = system: SK-MEL-5 melanoma
[27] = system: RXF 393 renal
[28] = system: COLO 205 colon
[29] = system: SF-539 CNS
[30] = system: HCT-15 colon
[31] = system: XF 498 CNS
[32] = system: OVCAR-3 ovarian
[33] = system: CAKI-1 renal
[34] = system: SK-MEL-28 melanoma
[35] = system: SF-268 CNS
[36] = system: DMS 273 small cell lung
[37] = system: LXFL 529 NSCLC
[38] = system: SN12C renal
[39] = system: LOX IMVI melanoma
[40] = system: IGROV1 ovarian
[41] = system: MOLT-4 leukemia
[42] = system: ACHN renal
[43] = system: SNB-19 CNS
[44] = system: NCI-H226 lung
[45] = system: NCI-H23 lung
[46] = system: HL-60(TB) leukemia
[47] = system: M19-MEL melanoma
[48] = system: U251 CNS
[49] = system: 786-0 renal
[50] = system: SNB-78 CNS
[51] = system: M14 melanoma
[52] = system: CCRF-CEM leukemia
[53] = system: SNB-75 CNS
[54] = system: RPMI-8226 leukemia
[55] = system: SW-620 colon
[56] = system: NCI-H460 lung
[57] = system: A498 renal
[58] = system: SN12K1 renal
[59] = system: NCI/ADR-RES ovarian
[60] = system: MCF7 breast
[61] = system: P388 leukemia
[62] = system: OVCAR-5 ovarian

Measured: TGI

CC(CCC[C@H](C)CO)[C@H]1[C@@H](O)C(O)C2[C@@H]3C[C@@H](O)C4(O)C[C@@H](O)CC[C@]4(C)C3CC[C@@]21C (some centres not stated)
not listed: [57] | [58] | [59] | [60] | [61] | [62]
> 100 µM: all other assays above

CSCC[C@@H]1C(=O)N(C)[C@H](C(C)(C)C)N1C(=O)c1ccccc1
not listed: [12] | [18] | [33] | [37] | [42] | [49] | [51]
> 100 µM: all other assays above

c1ccc(-c2nc3ccccc3nc2SCc2cccnc2)cc1
not listed: [2] | [4] | [6] | [12] | [15] | [17] | [18] | [23] | [24] | [25] | [26] | [27] | [29] | [30] | [33] | [39] | [40] | [47] | [55] | [56] | [57] | [58] | [59] | [60] | [61] | [62]
> 100 µM: all other assays above
